Among the data in the NIST ThermoML archive (doi:10.1021/acs.jced.8b00939) are viscosity and mass density values, retold here.

For data set [1] the following is noted: 298.15 K, 100 kPa, Liquid; for viscosity: Falling or rolling sphere viscometry; for mass density: Vibrating tube method.
A short description of data set [2]: wn = mass fraction of the nth substance listed. To be noted: 298.2 K, 100 kPa, Liquid; for viscosity: Falling or rolling sphere viscometry; for mass density: Vibrating tube method.
A short description of data set [3]: xn = mol fraction of the nth substance listed. To be noted: 298.2 K, 100 kPa, Liquid, x1 = 0.0843.

Structures are written as SMILES. Numbers after ± are expanded uncertainties.

On to `C=CC(C)(CCC=C(C)C)OC(C)=O` (stereo not drawn) [linalool acetate], for which, in data set [1], the viscosity turned out to be 2.3 ± 0.03 mPa·s and the mass density is reported as 898.6 ± 1.8 kg/m3.
For the compound `C=CC(C)(O)CCC=C(C)C` (stereo not drawn) [3,7-dimethyl-1,6-octadien-3-ol], in data set [1], the viscosity was 4.35 ± 0.05 mPa·s and the mass density was 857.3 ± 1.7 kg/m3.
Consider `CCO` [ethanol] + O, for which the viscosity in data set [2] (w2 = 0.061) turned out to be 1.31 ± 0.02 mPa·s; in data set [2] (w2 = 0.124), 1.46 ± 0.02 mPa·s; in data set [2] (w2 = 0.172) it was 1.64 ± 0.04 mPa·s; in data set [2] (w2 = 0.233), 1.8 ± 0.03 mPa·s; in data set [2] (w2 = 0.276), 1.87 ± 0.02 mPa·s; in data set [2] (w2 = 0.34) it was 1.9 ± 0.1 mPa·s. The viscosity is 2.19 ± 0.15 mPa·s in data set [2] (w2 = 0.41), 2.31 ± 0.03 mPa·s in data set [2] (w2 = 0.5) and 2.34 ± 0.02 mPa·s in data set [2] (w2 = 0.62). Further, the mass density is 802.5 ± 1.9 kg/m3 in data set [2] (w2 = 0.061); 819.5 ± 2 kg/m3 in data set [2] (w2 = 0.124); 833.4 ± 3.1 kg/m3 in data set [2] (w2 = 0.172); 848.2 ± 3.3 kg/m3 in data set [2] (w2 = 0.233); 857.9 ± 2.6 kg/m3 in data set [2] (w2 = 0.276); 861.8 ± 9 kg/m3 in data set [2] (w2 = 0.34). Further, the mass density amounted to 887.3 ± 18 kg/m3 in data set [2] (w2 = 0.41), 908.8 ± 4.9 kg/m3 in data set [2] (w2 = 0.5) and 935.2 ± 9 kg/m3 in data set [2] (w2 = 0.62).
Consider `C=CCc1ccc(OC)c(OC)c1` [methyleugenol], for which, in data set [1], the viscosity was 4.23 ± 0.04 mPa·s and the mass density turned out to be 1031 ± 2 kg/m3.
For the compound `C/C1=C\CC/C(C)=C/CC(C)(C)/C=C/C1` [(E,E,E)-2,6,6,9-tetramethyl-1,4,8-cycloundecatriene] + C=C1CC/C=C(\C)CC[C@@H]2[C@@H]1CC2(C)C, the viscosity in data set [3] (Falling or rolling sphere viscometry) was determined as 5.87 ± 0.07 mPa·s. The mass density in data set [3] (Vibrating tube method) amounted to 897.1 ± 1.8 kg/m3.
Consider `CCO` [ethanol], for which, in data set [1], the viscosity worked out at 1.13 ± 0.01 mPa·s and the mass density is reported as 785.1 ± 1.6 kg/m3.
The matching figures for `C=CCc1ccc(O)c(OC)c1` [2-hydroxy-5-allylanisole]: 6.98 ± 0.08 mPa·s and 1062 ± 2 kg/m3.
For the compound `C=C(C)[C@H]1CC=C(C)CC1` [(R)-1-methyl-4-(1-methylethenyl)cyclohexene], in data set [1], the viscosity came to 0.87 ± 0.01 mPa·s and the mass density is recorded as 839.1 ± 1.7 kg/m3.
With `O` [water], the viscosity in data set [1] was found to be 0.89 ± 0.01 mPa·s.
